Measurements as given in US12285437B2 (The Research Foundation for The State University of new York, priority 2019, dated 2025).
Where two headings read alike, the source gives them in different places.

Key:
[1] = system: NIH:OVCAR3 human ovarian cancer cells
Experimental: (§1) pH-dependent anti-proliferation assays with cells. In 96-well plates, ˜3,000 cells were seeded per well then grown for 24-48 hr until 30-40% confluency. […] For serum effect cell plate data shown in FIG. 5I, cell viability was measured using alamar Blue assay (i.e., growth media was replaced with 45 μL of pH 7.4 DMEM/F-12 media without phenol red, 5 μL of alamar Blue reagent (10×) was added; fluorescence at 590 nm was recorded after excitation at 560 nm at 1 hr afterwards).
(§2) The reaction solution was allowed to stand at rt for 1 hr in the dark, during which the pH decreased to ˜9.6. After 1 hr, the reaction solution was split into two 50-μL portions (for pH 7.4 vs. pH 6.2-6.8 cell experiments). The pH of one portion was adjusted to pH 8 (for pH 7.4 cell experiments) or pH 7 (for pH 6.2-6.8 cell experiments). Subsequently, the solution was diluted 30-fold (to 10 μM) with pH 7.4 or pH 6.2-6.8 cell media (final volume 1.5 mL) and then filtered (0.2 micron) before used in cell experiments.

[2] = system: MDA-MB-231 human breast cancer cells; details: 3 μM
Experimental: as §1, §2

[3] = system: SKOV3 human ovarian cancer cells; details: FIG. 9A, 4 μM
Experimental: as §1, §2

[4] = system: ES2 cells; assay: Imaging studies (confocal microscopy); assay type: cell-based, human; details: ES2, 1 h
Experimental: Afterwards, the treatment solution was removed; the nuclei of the cells were labeled with staining dye Hoechst 33342; and then images were taken on a scanning confocal microscope.
Imaging studies (confocal microscopy). Approximately 8,000 ES2 cells were seeded on a colIagen-coated glass dish (MatTek Corporation, part No. P35GCOL-0-10-C) and cultured in McCoy's 5A medium with 10% fetal bovine serum and 1% penicillin-streptomycin at 37° C. in the incubator (5% CO2) overnight. […] After treatment solution was removed, the cells were washed 1× with 100 μL of DMEM/F12 pH-specific media. Prior to fluorescence imaging, the nuclei of cells were stained with 1 μg/mL Hoechst 33342 in PBS for 20 min at 37° C. in the incubator. Afterwards, cells stayed in pH-specific DMEM/F12 media during imaging. […] The images in FIGS. 33-36 were processed using LAS X and ImageJ.

[5] = system: ES-2 human ovarian cancer cells; assay: pH-dependent anti-proliferation assay (MTS; alamar Blue for FIG. 7I); details: for Cell Viability Average (Avg): FIG. 7A, ES-2, 6 hr
From the text: pH-dependent anti-proliferation assays with cells.
NaOH to adjust the pH to 9.9.

[6] = system: noncancerous kidney epithelial HK2 cells; assay: Cytotoxicity assays with noncancerous HK2 kidney cells; assay type: cell-based, human
Experimental: Cytotoxicity assays with noncancerous HK2 kidney cells. […] Dox and DMA prodrug experiments were carried out on separate plates. […] The cell viability in vehicle (buffer/DMSO) negative control treatment groups were treated as 100% during normalization of data.

[7] = system: PC-3 human prostate cancer cells; details: FIG. 9B, PC3, […], 4 μM
Experimental: as §1, §2

[8] = system: ES2 ovarian cancer cells; assay: Antiproliferation assays against ES2 cancer cells at different pH values; assay type: cell-based, human; details: ES2, 2 h, 1 μM
Experimental: For cell experiments, a pH 8 or pH 10 (directly from DMI to DMA conversion) solution of DMA 2/4/6 was sterilized by filtering through a 0.2-micron membrane. […] At this point, small amounts of 10 (or 25) mM of sterile aq.
Antiproliferation assays against ES2 cancer cells at different pH values. […] Treatment solution volume was 50-100 μL per well, with a set volume per well for all wells in a plate.

[9] = cancer patients, two hours afterwards; cited from earlier work

## COc1cccc2c1C(=O)c1c(O)c3c(c(O)c1C2=O)C[C@@](O)(C(=O)CO)C[C@@H]3O[C@H]1C[C@H](N)[C@H](O)[C@H](C)O1 [Dox, doxorubicin]
[1]; FIG. 7C, OVCAR3, 2 hr, 3 μM, pH 6.3-6.4
  Cell Viability Avg: 57%
[1]; FIG. 7C, OVCAR3, 2 hr, 3 μM, pH 7.4-7.6
  Cell Viability Avg: 24%
[1]; FIG. 7G, OVCAR3, 2 hr, 2 μM, pH 6.2-6.4
  Cell Viability Avg: 60%
[1]; FIG. 7G, OVCAR3, 2 hr, 2 μM, pH 6.4-6.5
  Cell Viability Avg: 55%
[1]; FIG. 7G, OVCAR3, 2 hr, 2 μM, pH 6.6-6.7
  Cell Viability Avg: 58%
[1]; FIG. 7G, OVCAR3, 2 hr, 2 μM, pH 6.8-6.9
  Cell Viability Avg: 46%
[1]; FIG. 7G, OVCAR3, 2 hr, 2 μM, pH 7.1-7.3
  Cell Viability Avg: 51%
[1]; FIG. 7G, OVCAR3, 2 hr, 2 μM, pH 7.2-7.5
  Cell Viability Avg: 48%
[1]; FIG. 10A, OVCAR3, 6 hr, 1 μM, pH 6.5-6.7
  Cell Viability Avg: 81%
[1]; FIG. 10A, OVCAR3, 6 hr, 1 μM, pH 7.3-7.6
  Cell Viability Avg: 51%
[2]; FIG. 7B, MDA-MB231, 2 hr, pH 6.3-6.4
  Cell Viability Avg: 30%
[2]; FIG. 7B, MDA-MB231, 2 hr, pH 7.6-7.7
  Cell Viability Avg: 15%
[2]; FIG. 7F, MDA-MB231, […], pH 6.3-6.4
  Cell Viability Avg: 30%
[2]; FIG. 7F, MDA-MB231, […], pH 6.5
  Cell Viability Avg: 29%
[2]; FIG. 7F, MDA-MB231, […], pH 6.6-6.7
  Cell Viability Avg: 36%
[2]; FIG. 7F, MDA-MB231, […], pH 6.9-7.0
  Cell Viability Avg: 30%
[2]; FIG. 7F, MDA-MB231, […], pH 7.2-7.3
  Cell Viability Avg: 29%
[2]; FIG. 7F, MDA-MB231, […], pH 7.5-7.7
  Cell Viability Avg: 31%
[3]; pH 6.3-6.5
  Cell Viability Avg: 39%
[3]; pH 7.5-7.6
  Cell Viability Avg: 22%
[4]
  distribution of Dox fluorescence within cells: within the nuclei
[4]; 4 μM Dox or 8 μM prodrug/DMI
  Dox fluorescence signals in cells, pH 6.7 vs. 7.7: More Dox fluorescence signals were observed at pH 7.7 than 6.7
[5]; 0.5 μM, pH 6.6-6.8
  Cell Viability Average (Avg): 32%
[5]; 0.5 μM, pH 7.2-7.5
  Cell Viability Average (Avg): 16%
[5]; FIG. 7E, ES2, […], 1 μM, pH 6.3-6.4
  Cell Viability Avg: 43%
[5]; FIG. 7E, ES2, […], 1 μM, pH 6.5
  Cell Viability Avg: 49%
[5]; FIG. 7E, ES2, […], 1 μM, pH 6.7-6.8
  Cell Viability Avg: 44%
[5]; FIG. 7E, ES2, […], 1 μM, pH 6.8-6.9
  Cell Viability Avg: 42%
[5]; FIG. 7E, ES2, […], 1 μM, pH 7.2
  Cell Viability Avg: 25%
[5]; FIG. 7E, ES2, […], 1 μM, pH 7.2-7.4
  Cell Viability Avg: 23%
[5]; FIG. 7I, ES2, FBS(50%), 1 μM, pH 6.5-6.9
  Cell Viability Avg: 71%
[5]; FIG. 7I, ES2, FBS(50%), 1 μM, pH 7.2-7.7
  Cell Viability Avg: 36%
[5]; FIG. 7I, ES2, no FBS, 1 μM, pH 6.5-6.9
  Cell Viability Avg: 77%
[5]; FIG. 7I, ES2, no FBS, 1 μM, pH 7.2-7.7
  Cell Viability Avg: 48%
[5]; FIG. 8A, ES2, 0.1 μM, pH 6.6-6.7
  Cell Viability Avg: 87%
[5]; FIG. 8A, ES2, 0.1 μM, pH 7.5-7.6
  Cell Viability Avg: 62%
[5]; FIG. 8A, ES2, 0.3 μM, pH 6.6-6.7
  Cell Viability Avg: 72%
[5]; FIG. 8A, ES2, 0.3 μM, pH 7.5-7.6
  Cell Viability Avg: 33%
[5]; FIG. 8A, ES2, 1 μM, pH 6.6-6.7
  Cell Viability Avg: 35%
[5]; FIG. 8A, ES2, 1 μM, pH 7.5-7.6
  Cell Viability Avg: 15%
[5]; FIG. 8A, ES2, 3 μM, pH 6.6-6.7
  Cell Viability Avg: 21%
[5]; FIG. 8A, ES2, 3 μM, pH 7.5-7.6
  Cell Viability Avg: 2%
[5]; FIG. 8B, ES2, 2 hr, 1 μM, pH 6.6-6.8
  Cell Viability Avg: 44%
[5]; FIG. 8B, ES2, 2 hr, 1 μM, pH 7.2-7.6
  Cell Viability Avg: 23%
[5]; FIG. 8B, ES2, 6 hr, 0.5 μM, pH 6.6-6.8
  Cell Viability Avg: 32%
[5]; FIG. 8B, ES2, 6 hr, 0.5 μM, pH 7.2-7.6
  Cell Viability Avg: 16%
[5]; FIG. 8B, ES2, 12 hr, 0.5 μM, pH 6.6-6.8
  Cell Viability Avg: 47%
[5]; FIG. 8B, ES2, 12 hr, 0.5 μM, pH 7.2-7.6
  Cell Viability Avg: 13%
[5]; FIG. 8B, ES2, 24 hr, 1 μM, pH 6.6-6.8
  Cell Viability Avg: 35%
[5]; FIG. 8B, ES2, 24 hr, 1 μM, pH 7.2-7.6
  Cell Viability Avg: 15%
[5]; FIG. 10B, ES2, 12 hr, 0.5 μM, pH 6.6-6.7
  Cell Viability Avg: 47%
[5]; FIG. 10B, ES2, 12 hr, 0.5 μM, pH 7.4-7.6
  Cell Viability Avg: 13%
[6]; FIG. 29B, HK2, pH 7.4, 30 μM
  viability: 21%
[6]; FIG. 30B, HK2, pH 7.4, 1 μM
  cells killed: 20%
[6]; FIG. 30B, HK2, pH 7.4, 30 μM
  viable cells: 31%
[6]; FIG. 31B, HK2, pH 7.4, 30 μM
  cells killed: > 80%
[7]; pH 6.3-6.4
  Cell Viability Avg: 53%
[7]; pH 7.5-7.6
  Cell Viability Avg: 15%
[8]; pH 6.6-6.8
  viability: 60-70%
[8]; FIG. 29A, pH 6.7
  viability: 60-70%
[8]; FIG. 29A, pH 7.5
  viability: 28%
[8]; FIG. 31A, pH 6.5-6.8
  viability: 40-60%
[8]; FIG. 31A, pH 7.5
  viability: ~20%
[9]
  intratumoral concentration: 0.5 to 5 mM
